The source of these data is patent publication US8716318B2, “Pyridone sulfonamides and pyridone sulfamides as MEK inhibitors” (Ardea Biosciences, priority 2006, dated 2014).

Structures are written as SMILES.

The subject of one test is A375 cells. Briefly: Growth inhibition assay (GI50), A375 cells, CellTiterGlo. It is filed as cell-based. The following applies: Homo sapiens, A-375, 48 hr, ATP levels. How it is done: For growth inhibition experiments, A375 cells were plated in white 384-well microplates at 1000 cells/[…]/well. After 24 hr, […] of a 5× drug stock solution was added. All drugs were initially prepared as 200× stocks in DMSO, such that final DMSO concentration was 0.5%. Cells were incubated for 48 hr at 37° C. and ATP levels were determined using CellTiterGlo (Promega, Madison, Wis.). A control MEK inhibitor was used to determine the ATP level corresponding to full growth inhibition and the concentration of test compound that gave ATP levels midway between full growth inhibition and vehicle only ATP levels was determined to be the GI50 using non-linear regression (GraphPad Prism 4).

A further test concerns THP-1. As to the kind of experiment: Growth inhibition assay (GI50), THP-1. Type of test: cell-based. The settings on record: Homo sapiens.
Test [1] can be described thus: EC50 (no method described).
Test [2] addresses T1, human GST-MEK1^CA (Ser218Asp, Ser222Asp) (Homo sapiens, UniProt Q02750, S218D/S222D).
T1 construct: GST; made in house; host or cells: Escherichia coli
As to the kind of experiment: MEK1 kinase assay (generation of IC50 data, 33P filter assay with ERK2 and MBP). Type of test: biochemical. The following applies: ATP. An excerpt:
Materials and preparation of reagents: Human GST-MEK1 and the constitutively active allele GST-MEK1^CA (harboring the mutations Ser218Asp and Ser222Asp) were subcloned into the yeast expression vector pGEM4Z (Promega, Madison, Wis.) from the wild type human MEK1 cDNA. GST-MEK1^CA was expressed in Escherichia coli and partially purified using Glutathione Sepharose 4B affinity resin (Amersham Pharmacia Biotech, Piscataway, N.J.). The ERK2 allele was subcloned from MAPK2/Erk2 cDNA (wild type) in pUSEamp (Upstate Biotechnology, Inc., Waltham, Mass.) into the vector pET21a (Novagen, Madison, Wis.) resulting in an N-terminal histidine-tagged mouse ERK2 allele. ERK2 was expressed and purified to homogeneity [Zhang, 1993 #33]. Myelin basic protein (MBP) was purchased from Gibco BRL (Rockville, Md.). EasyTides adenosine 5′-triphosphate (ATP) ([γ-^33P]) (NEN Perkin Elmer, Wellesley, Mass.) was the source of radiolabel for all kinase reactions. Activated Raf-1 (truncated) and activated MAPKinase 2/ERK2 were purchased from Upstate, Inc. (Lake Placid, N.Y.). 4-20% Criterion Precast gels were purchased from Bio-Rad (Hercules, Calif.).
Determination of enzymatic activity: Compounds were diluted from dimethylsulfoxide (DMSO) stocks into 1×HMNDE (20 mM HEPES pH 7.2, 1 mM MgCl2, 100 mM NaCl, 1.25 mM DTT, 0.2 mM EDTA). A typical 25-microliter assay contained 0.002 nanomoles MEK1^CA, 0.02 nanomoles ERK2, 0.25 nanomoles MBP, 0.25 nanomoles unlabeled ATP, and 0.1 μCi [γ^33P] ATP. The screening assay essentially comprised four additions. Five μl of diluted compound were dispensed to 96-well assay plates. Ten μl of 2.5× enzyme cocktail (MEK1^CA and ERK2 only) were then added to each well followed by a pre-incubation for 30 minutes at ambient temperature. Ten μl of 2.5× substrate cocktail (labeled and unlabeled ATP plus MBP) were then added, followed by incubation for 60 minutes at ambient temperature. Finally, 100 μl of 10% trichloroacetic acid (TCA) were added and incubated for 30 minutes at room temperature to halt the reaction and precipitate radiolabeled protein products. Reaction products were harvested on glass fiber 96 well filter plates prewetted with water and 1% pyrophosphate. The filter plate was then washed 5 times with water. Water was displaced by absolute ethanol and the plate was allowed to air dry for 30 minutes at room temperature. A back seal was applied manually and 40 μl of scintillation cocktail were dispensed to each well. A top seal was applied and the plate was counted in the TopCount for two seconds per well.

T1 sequence (Q02750 whole entry S218D/S222D): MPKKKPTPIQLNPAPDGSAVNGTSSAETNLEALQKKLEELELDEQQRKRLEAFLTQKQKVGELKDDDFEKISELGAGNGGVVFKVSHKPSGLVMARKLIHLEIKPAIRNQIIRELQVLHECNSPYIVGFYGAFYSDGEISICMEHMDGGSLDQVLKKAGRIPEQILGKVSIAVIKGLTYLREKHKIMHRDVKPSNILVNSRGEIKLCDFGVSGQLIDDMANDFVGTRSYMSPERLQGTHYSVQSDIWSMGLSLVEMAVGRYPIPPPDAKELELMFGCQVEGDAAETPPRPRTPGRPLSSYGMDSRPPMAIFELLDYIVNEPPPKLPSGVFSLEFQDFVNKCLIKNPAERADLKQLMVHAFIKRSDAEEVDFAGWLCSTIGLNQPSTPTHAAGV

On to `Cn1cc(NS(=O)(=O)C2CC2)c(Nc2ccc(I)cc2F)c(Cl)c1=O` [Example 9, Cyclopropanesulfonic acid [5-chloro-4-(2-fluoro-4-iodo-phenylamino)-1-methyl-6-oxo-1,6-dihydro-pyridin-3-yl]-amide], for which the results for the GI50 with A375 cells and with THP-1 were 0.5 to 1 µM and more than 1 µM, respectively. This molecule had an EC50 in test [1] of less than 0.1 µM. For the same molecule, in test [2], the IC50 was less than 0.1 µM.
Turning to `Cn1cc(NS(=O)(=O)C2CC2)c(Nc2ccc(Br)cc2F)cc1=O` [Example 8, Cyclopropanesulfonic acid [4-(4-bromo-2-fluoro-phenylamino)-1-methyl-6-oxo-1,6-dihydro-pyridin-3-yl]-amide], the IC50 in test [2] is more than 1 µM.
Consider `Cn1cc(NS(=O)(=O)C2CC2)c(Nc2ccc(I)cc2F)cc1=O` [Example 1, N-(4-(2-fluoro-4-iodophenylamino)-1-methyl-6-oxo-1,6-dihydropyridin-3-yl)cyclopropanesulfonamide], for which the 50% growth inhibitory concentration (GI50) with A375 cells and with THP-1 was less than 0.1 µM in each case. The molecule also came in with an EC50 in test [1] of less than 0.1 µM. For the same molecule, in test [2], the concentration for half-maximal inhibition (IC50) was in the range of 0.5 to 1 µM.
With `Cn1cc(NS(=O)(=O)C2(CC(O)CO)CC2)c(Nc2ccc(I)cc2F)cc1=O` (stereo not drawn) [Example 2, 1-(2,3-dihydroxypropyl)-N-(4-(2-fluoro-4-iodophenylamino)-1-methyl-6-oxo-1,6-dihydropyridin-3-yl)cyclopropane-1-sulfonamide], the concentration for 50% growth inhibition (GI50) in the test with A375 cells and in the test on THP-1 was more than 1 µM in each case. Moreover, in test [1], the EC50 fell in the range of 0.5 to 1 µM. Moreover, the concentration for half-maximal inhibition (IC50) in test [2] was in the range of 0.5 to 1 µM.
Regarding `CN(C)S(=O)(=O)Nc1cn(C)c(=O)cc1Nc1ccc(I)cc1F` [Example 6, N-(4-(2-fluoro-4-iodophenylamino)-1-methyl-6-oxo-1,6-dihydropyridin-3-yl)dimethyl-1-sulfamide], the GI50 lay within 0.5 to 1 µM with A375 cells and 0.1 to 0.5 µM with THP-1. In test [1], this molecule gave an EC50 of 0.5 to 1 µM. This molecule displayed an IC50 in test [2] of more than 1 µM.
Consider `Cc1c(Nc2ccc(I)cc2F)c(NS(=O)(=O)C2CC2)cn(C)c1=O` [Example 5, N-(4-(2-fluoro-4-iodophenylamino)-1,5-dimethyl-6-oxo-1,6-dihydropyridin-3-yl)cyclopropanesulfonamide], for which the concentration for a half-maximal effect (EC50) in test [1] was less than 0.1 µM. Further, in test [2], the concentration for half-maximal inhibition (IC50) was less than 0.1 µM.
For `Cc1c(Nc2ccc(I)cc2F)c(NS(=O)(=O)C2(Cl)CC2)cn(C)c1=O` [Example 10, 1-Chloro-Cyclopropanesulfonic acid [4-(2-fluoro-4-iodo-phenylamino)-1,5-dimethyl-6-oxo-1,6-dihydro-pyridin-3-yl]-amide], the EC50 in test [1] was less than 0.1 µM. Further, the IC50 in test [2] was in the range of 0.1 to 0.5 µM.
Consider `Cn1cc(NS(=O)(=O)C2(CC(=O)CO)CC2)c(Nc2ccc(I)cc2F)c(F)c1=O` [Example 12, 1-(3-Hydroxy-2-oxo-propyl)-cyclopropanesulfonic acid [5-fluoro-4-(2-fluoro-4-iodo-phenylamino)-1-methyl-6-oxo-1,6-dihydro-pyridin-3-yl]-amide], for which the EC50 in test [1] is less than 0.1 µM. Moreover, in test [2], the concentration for half-maximal inhibition (IC50) was less than 0.1 µM.
As to `Cn1cc(NS(=O)(=O)C2CC2)c(Nc2ccc(Br)cc2F)c(Cl)c1=O` [Example 3, N-(5-chloro-4-(2-fluoro-4-bromophenylamino)-1-methyl-6-oxo-1,6-dihydropyridin-3-yl)cyclopropanesulfonamide], the GI50 with A375 cells and in the test on THP-1 was more than 1 µM throughout. In test [1], this molecule gave an EC50 of 0.1 to 0.5 µM. The same molecule returned a half-maximal inhibitory concentration (IC50) in test [2] of 0.5 to 1 µM.
For the molecule `Cn1cc(NS(=O)(=O)C2CC2)c(Nc2ccc(I)cc2F)c(F)c1=O` [Example 4, N-(5-fluoro-4-(2-fluoro-4-iodophenylamino)-1-methyl-6-oxo-1,6-dihydropyridin-3-yl)cyclopropanesulfonamide], the concentration for 50% growth inhibition (GI50) was less than 0.1 µM in the test with A375 cells and more than 1 µM in the test with THP-1. The EC50 in test [1] was less than 0.1 µM. This molecule also displayed an IC50 in test [2] of less than 0.1 µM.
Molecule `Cn1cc(NS(=O)(=O)C2(CC(O)CO)CC2)c(Nc2ccc(I)cc2F)c(F)c1=O` (stereo not drawn) [Example 11, 1-(2,3-Dihydroxy-propyl)-cyclopropanesulfonic acid [5-fluoro-4-(2-fluoro-4-iodo-phenylamino)-1-methyl-6-oxo-1,6-dihydro-pyridin-3-yl]-amide] had a half-maximal effective concentration (EC50) in test [1] of 0.1 to 0.5 µM. In test [2], this molecule returned a concentration for half-maximal inhibition (IC50) of less than 0.1 µM.
On to `Cn1cc(NS(=O)(=O)NCC(O)CO)c(Nc2ccc(I)cc2F)cc1=O` (stereo not drawn) [Example 13], for which the GI50 in the test on A375 cells and in the test with THP-1 was more than 1 µM throughout. The molecule also showed an IC50 in test [2] of more than 1 µM.
For `Cn1cc(NS(=O)(=O)C2CC2)c(Nc2ccc(Br)cc2F)c(F)c1=O` [Example 7, Cyclopropanesulfonic acid [4-(4-bromo-2-fluoro-phenylamino)-5-fluoro-1-methyl-6-oxo-1,6-dihydro-pyridin-3-yl]-amide], the GI50 in the test with A375 cells and in the test with THP-1 was more than 1 µM throughout. The molecule also showed an IC50 in test [2] of 0.5 to 1 µM.
